{
  "source": "patent US7888332B2",
  "about": "“Hydrazide-containing CFTR inhibitor compounds and uses thereof” (The Regents of the University of California, priority 2004, dated 2011)",
  "key": {"CFTR [1]": {"molecular_target": "T1, CFTR (Homo sapiens, UniProt P13569)", "T1 sequence (P13569 whole entry)": "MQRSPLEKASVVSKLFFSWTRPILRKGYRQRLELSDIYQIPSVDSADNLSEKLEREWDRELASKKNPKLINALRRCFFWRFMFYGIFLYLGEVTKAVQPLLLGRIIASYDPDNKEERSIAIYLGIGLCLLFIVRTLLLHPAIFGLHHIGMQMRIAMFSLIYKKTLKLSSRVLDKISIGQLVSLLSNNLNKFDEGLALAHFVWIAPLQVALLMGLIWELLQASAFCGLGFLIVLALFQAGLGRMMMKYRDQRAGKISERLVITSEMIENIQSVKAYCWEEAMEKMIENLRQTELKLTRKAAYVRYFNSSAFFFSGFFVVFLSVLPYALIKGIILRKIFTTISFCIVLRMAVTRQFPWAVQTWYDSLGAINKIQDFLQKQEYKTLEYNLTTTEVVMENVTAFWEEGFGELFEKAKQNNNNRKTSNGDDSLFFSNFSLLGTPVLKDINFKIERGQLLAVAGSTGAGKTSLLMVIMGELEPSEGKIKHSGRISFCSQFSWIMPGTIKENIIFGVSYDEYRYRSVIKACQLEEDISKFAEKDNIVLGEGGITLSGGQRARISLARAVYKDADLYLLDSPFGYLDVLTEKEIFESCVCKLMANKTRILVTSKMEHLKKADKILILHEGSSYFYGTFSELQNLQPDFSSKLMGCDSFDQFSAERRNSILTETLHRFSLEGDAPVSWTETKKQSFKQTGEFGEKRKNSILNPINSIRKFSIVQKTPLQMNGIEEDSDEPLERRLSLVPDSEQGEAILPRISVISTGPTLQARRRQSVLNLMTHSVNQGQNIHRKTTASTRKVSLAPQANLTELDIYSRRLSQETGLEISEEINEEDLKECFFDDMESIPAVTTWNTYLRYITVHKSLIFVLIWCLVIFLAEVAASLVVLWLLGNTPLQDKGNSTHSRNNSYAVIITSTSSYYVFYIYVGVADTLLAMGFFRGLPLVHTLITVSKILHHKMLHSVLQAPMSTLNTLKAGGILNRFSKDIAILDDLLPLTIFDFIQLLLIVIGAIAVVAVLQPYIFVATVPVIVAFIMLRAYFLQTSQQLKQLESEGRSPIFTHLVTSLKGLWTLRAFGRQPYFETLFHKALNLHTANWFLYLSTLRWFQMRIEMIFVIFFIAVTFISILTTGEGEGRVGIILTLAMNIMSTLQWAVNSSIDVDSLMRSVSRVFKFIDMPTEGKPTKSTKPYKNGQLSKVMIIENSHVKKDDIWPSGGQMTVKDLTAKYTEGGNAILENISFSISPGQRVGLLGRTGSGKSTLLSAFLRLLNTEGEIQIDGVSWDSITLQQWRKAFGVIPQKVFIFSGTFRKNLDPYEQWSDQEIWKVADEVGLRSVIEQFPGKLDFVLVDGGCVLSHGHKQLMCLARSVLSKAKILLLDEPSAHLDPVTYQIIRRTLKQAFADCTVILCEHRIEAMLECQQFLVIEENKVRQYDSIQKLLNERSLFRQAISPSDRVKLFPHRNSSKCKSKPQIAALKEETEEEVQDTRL", "assay": "Cell-based YFP fluorescence assay of iodide influx after CFTR activation (screening)", "set-up": "expressed in transfected cells; host or cells: Fisher Rat Thyroid (FRT) cells, stably transfected", "experimental": "Screening was performed using an integrated system (Beckman) consisting of a 3-meter robotic arm, CO2 incubator, plate washer, liquid handling work station, barcode reader, delidding station, plate sealer and two fluorescence plate readers (Optima, BMG Lab Technologies), each equipped with two syringe pumps and HQ500/20X (500±10 nm) excitation and HQ535/30M (535±15 nm) emission filters (Chroma).\nOne hundred thousand small molecules (most 350-550 daltons) were selected for screening from commercial sources (ChemBridge and ChemDiv, both of San Diego, Calif.) using algorithms designed to maximize chemical diversity and drug-like properties. The compounds were obtained as a dried powder and solutions were made in DMSO just before testing, stored frozen as 2.5 mM stock solutions for further use.\nFor screening, cells in 96-well plates were washed three times and then CFTR halide conductance was activated by incubation for 15 minutes with an activating cocktail containing 10 μM forskolin, 20 μM apigenin and 100 μM isobutylmethyl-xanthine (IBMX). Test compounds (final 25 μM) were added 5 minutes prior to assay of iodide influx in which cells were exposed to a 100 mM inwardly-directed iodide gradient. YFP fluorescence was recorded for 2 seconds prior to and 12 seconds after creation of the iodide gradient. Initial rates of iodide influx were computed from the time course of decreasing fluorescence after the iodide gradient (Yang et al., J. Biol. Chem., 35079-35085, 2003).\nA collection of 100,000 small, drug-like compounds was screened to identify new CFTR inhibitors. As diagrammed in FIG. 1A, compounds were screened at 25 μM in a cell-based assay of iodide influx after CFTR activation by an agonist mixture containing forskolin, IBMX and apigenin. Initial rates of iodide influx were computed from the kinetics of fluorescence decrease following chloride replacement by iodide. Four compounds (FIG. 1B) reducing iodide influx by greater than 50% were identified, which were not related structurally to known CFTR activators or inhibitors."}, "CFTR [2]": {"molecular_target": "T1, CFTR", "assay": "Whole-cell patch-clamp on FRT cells expressing CFTR", "type": "cell-based", "set-up": "expressed in transfected cells; host or cells: Fisher Rat Thyroid (FRT) cells, stably transfected", "settings": "for Ki: 5 μM forskolin, read-out: apparent Ki", "experimental": "Patch-clamp experiments were carried out at room temperature on FRT cells stably expressing wildtype CFTR. Cell-attached and whole-cell configurations were used (Hamill et al., Pflugers Arch. 391:85-100, 1981). The cell membrane was clamped at specified voltages using an EPC-7 patch-clamp amplifier (List Medical). Data were filtered at 500 Hz and digitized at 2000 Hz. For whole-cell experiments the pipette solution contained (in mM): 120 CsCl, 10 TEA-Cl, 0.5 EGTA, 1 MgCl2, 40 mannitol, 10 Cs-HEPES and 3 mM MgATP (pH 7.3). For cell attached experiments EGTA was replaced with 1 mM CaCl2. The bath solution for whole-cell experiments contained (in mM): 150 NaCl, 1 CaCl2, 1 MgCl2, 10 glucose, 10 mannitol, 10 Na-TES (pH 7.4). In cell-attached experiments the bath solution contained (in mM): 130 KCl, 2 NaCl, 2 CaCl2, 2 MgCl2, 10 glucose, 20 mannitol, and 10 K-Hepes (pH 7.3). Inhibitors were applied by extracellular perfusion. CFTR channel activity in cell-attached patches was analyzed as described previously (Taddei et al., FEBS Lett. 558:52-56, 2004).\nThe mechanism of CFTR block by GlyH-101 was studied using the whole-cell configuration of the patch-clamp technique. After maximal activation of CFTR in stably transfected FRT cells by 5 μM forskolin, current-voltage relationships were measured at GlyH-101 concentrations from 0 to 50 μM. […] Extracellular perfusion with 10 μM GlyH-101 produced an immediate reduction in current that was strongly dependent on membrane potential (FIG. 4A, right panel). At more positive membrane potentials outward positive currents (Cl^− movement into the cell) were reduced compared to inward currents. […] Data for the thiazolidinone 3-[(3-trifluoromethyl)phenyl]-5-[(4-carboxyphenyl)methylene]-2-thioxo-4-thiazolidinone (referred to herein as CFTRinh-172) (5 μM) is shown for comparison. […] FIG. 4C summarizes percentage CFTR current block as a function of GlyH-101 concentration at different membrane voltages."}, "[3]": {"settings": "after GlyH-101 addition (10 μM)"}},
  "note": "Like-named read-outs stand apart in the source and are kept apart here.",
  "data": [
    {"compound": "O=C(CNc1ccc2ccccc2c1)NN=Cc1cc(Br)c(O)c(Br)c1O", "note": "[GlyH-101, N-2-napthalenyl-[(3,5-dibromo-2,4-dihydroxyphenyl)methylene]glycine hydrazide]", "values": [
      {"measurement": "CFTR inhibition after activation by different types of agonists", "setting": "CFTR [1]; 50 μM GlyH-101, agonists 50 μM incl. CFTRact-01, 08, 10", "result": "effective CFTR inhibition"},
      {"measurement": "time of further inhibition", "setting": "CFTR [1]; [3]", "result": "~1", "unit": "min"},
      {"measurement": "time within which 50% of the inhibition occurred", "setting": "CFTR [1]; [3]", "result": "≤ 1", "unit": "s"},
      {"measurement": "reversal of inhibition after washout", "setting": "CFTR [1]; washout", "result": "complete reversal"},
      {"measurement": "reversal of inhibition over 5 minutes after washout", "setting": "CFTR [1]; washout, 5 minutes", "result": "> 75", "unit": "%"},
      {"measurement": "increase of apparent Ki as applied potential varied from +60 to −60 mV", "setting": "CFTR [2]", "result": "approximately four-fold"},
      {"measurement": "Hill coefficient nH", "setting": "CFTR [2]; +20 mV", "result": 0.7},
      {"measurement": "Ki", "setting": "CFTR [2]; +20 mV", "result": 3.8, "unit": "µM"},
      {"measurement": "Hill coefficient nH", "setting": "CFTR [2]; +60 mV", "result": 0.5},
      {"measurement": "Ki", "setting": "CFTR [2]; +60 mV", "result": 1.4, "unit": "µM"},
      {"measurement": "current-voltage relationship", "setting": "CFTR [2]; GlyH-101 at submaximal concentrations, CFTRinh-172 5 μM", "result": "inward rectification"},
      {"measurement": "Hill coefficient nH", "setting": "CFTR [2]; −20 mV", "result": 1.3},
      {"measurement": "Ki", "setting": "CFTR [2]; −20 mV", "result": 5, "unit": "µM"},
      {"measurement": "Hill coefficient nH", "setting": "CFTR [2]; −60 mV", "result": 1.8},
      {"measurement": "Ki", "setting": "CFTR [2]; −60 mV", "result": 5.6, "unit": "µM"},
      {"measurement": "inhibition of CFTR Cl− conductance at high concentrations", "setting": "CFTR [2]; ≧30 μM, whole-cell patch-clamp and short-circuit current experiments", "result": "fully inhibited"}
    ]}
  ]
}
